# Patent US20080207446A1, “Use of Phenylsemicarbazones for Seed Treatment” (BASF Aktiengesellschaft, priority 2005, published 2008)
# Experiments:
# Assay type in all cases: in vivo
# carrot seeds = experiment: Absence of phytotoxicity: sprouting of treated carrot seeds; conditions: for Influence on the viability of carrot seeds: seed treatment, conclusion from Table 1
# Method: To determine the effect of seed treatment on the viability of seeds and sprouting plants, carrot seeds were either treated with metaflumizone, coated with the insecticide chlorfenvinphos (commercially available under, and herein referred to by, the name Birlane™) or left untreated, then sowed and raised under controlled environmental conditions. At day 20 and day 43, respectively, the percentage of seeds which had sprouted was assessed.
# Psila rosae [1] = experiment: Short-term protection of carrots against Psila rosae by seed coating; conditions: for Reduction of early damage by maggots: conclusion from Table 2
# Text: In order to determine the efficacy of seed coating against dipteran larvae, carrot seeds were coated with two different concentrations of metaflumizone, Birlane™ or left untreated, then sowed and raised as described in Example 1. At day 35 after sowing, the plants were exposed to infestation by Psila rosae, which was monitored by adult trap catches. 300 to 400 insects per trap indicated fair infestation pressure. At days 35 and 91, respectively, 100 plants per field were examined for maggot infestation.
# All test products were applied by seed coating of carrot seeds. Birlane™ was applied according to label recommendations for carrots. Metaflumizone was applied at 50 ml and 100 ml formulated product per seed unit, respectively. The assessments of carrot rooffly damage were conducted 35 and 91 daysafter sowing. Infestation was evaluated by assessing 100 carrot roots per treatment, and the number of infested plants was recorded. The figures included in the table show the percentage of damaged plants by treatment.
# Psila rosae [2] = experiment: Long-term effect of carrot seed coating against Psila rosae; conditions: for Percentage of plants infested with Psila rosae (long-term): carrot seed coating 100 ml/unit; for Persistence of the protective effect of seed treatment: carrot seed coating, conclusion from Table 3
# Method: The objective of this trial was the direct comparison of metaflumizone with the market standard Birlane™ at 100 ml product per unit of seed. Activity evaluation considered the residual activity of the products up to 124 days after application.
# Carrot seeds were coated or left uncoated, sowed and raised as described in Example 2 and subjected to Psila rosae infestation at an approximate density of 300 to 400 insects per trap at days 46 to 53 after sowing. At days 82, 96, 110 and 124, respectively, 100 plants per field were examined for maggot infestation.
# Psila rosae [3] = experiment: Effective dosage of metaflumizone on carrot seeds against Psila rosae
# Text: In order to quantify the effect of metaflumizone against maggots, carrot seeds were coated with different concentrations of metaflumizone, with Birlane™ or left uncoated, then sowed and raised as described in the above Examples.
# Helix hortensis = experiment: Greenhouse snail trial on sprayed lettuce; conditions: lettuce sprayed with 240 g active ingredient per ha (240 g/l suspension concentrate)
# Method: For this example, a 240 g/l suspension concentrate of a compound I with R^1=trifluoromethyl in meta position, R^2=cyano in para position and R^3=trifluoromethoxy in para position was used with an application rate of 240 gram active ingredient per ha.
# The trial was carried out in the greenhouse under practical conditions in sandy soil. Three lettuce plants, variety Filipo, growth stage 45-46, were used as plot size. The lettuce was sprayed with a solution of the above mentioned compound at a rate of 240 gram active ingredient per hectare with 500 l/ha water. For spraying was a single Teejet® nozzle, model 8002 (from Spraying System Mobile Systems Division, Wheaton, Ill., USA), at 3 atmosphere pressure used.
# After the spray application, the plots were covered by net cages (diameter 40 cm) and 20 snails (sexually mature individuals of Helix hortensis) were added to every plot.
# Also an estimation of eating damages was recorded.
# [4] = 4 days after placing the snails
smiles,measurement,setting,value
"N#Cc1ccc(CC(=NNC(=O)Nc2ccc(OC(F)(F)F)cc2)c2cccc(C(F)(F)F)c2)cc1 (racemic) [metaflumizone, 2-[2-(4-cyanophenyl)-1-[3-(trifluoromethyl)phenyl]ethylidene]-N-[4-(trifluoromethoxy)phenyl]hydrazinecarboxamide]",Percentage of growing plants,"carrot seeds; carrot, in vivo, 20 day",42%
same,Percentage of growing plants,"carrot seeds; carrot, in vivo, 43 day",47%
same,Influence on the viability of carrot seeds,carrot seeds,no significant influence
same,Percentage of plants infested with Psila rosae,"Psila rosae [1]; carrot seed coating 50 ml/unit, Day 35 after sowing",3%
same,Percentage of plants infested with Psila rosae,"Psila rosae [1]; carrot seed coating 50 ml/unit, Day 91 after sowing",12%
same,Percentage of plants infested with Psila rosae,"Psila rosae [1]; carrot seed coating 100 ml/unit, Day 35 after sowing",7%
same,Percentage of plants infested with Psila rosae,"Psila rosae [1]; carrot seed coating 100 ml/unit, Day 91 after sowing",10%
same,Reduction of early damage by maggots,Psila rosae [1]; carrot seed coating,effective in reducing early damage by maggots
same,Prevention of damage to seedlings compared with Birlane,"Psila rosae [1]; carrot seed coating, during the first weeks",slightly more efficient than Birlane™
same,Percentage of plants infested with Psila rosae (long-term),Psila rosae [2]; Day 82,2%
same,Percentage of plants infested with Psila rosae (long-term),Psila rosae [2]; Day 96,4%
same,Percentage of plants infested with Psila rosae (long-term),Psila rosae [2]; Day 110,10%
same,Percentage of plants infested with Psila rosae (long-term),Psila rosae [2]; Day 124,22%
same,Persistence of the protective effect of seed treatment,Psila rosae [2],gradually wore off after 3-4 months
same,Effective dosage of metaflumizone in the treatment of carrot seeds (percentage),"Psila rosae [3]; 25 ml/unit, Day 70",2%
same,Effective dosage of metaflumizone in the treatment of carrot seeds (percentage),"Psila rosae [3]; 25 ml/unit, Day 97",33%
same,Effective dosage of metaflumizone in the treatment of carrot seeds (percentage),"Psila rosae [3]; 25 ml/unit, Day 116",73%
same,Effective dosage of metaflumizone in the treatment of carrot seeds (percentage),"Psila rosae [3]; 50 ml/unit, Day 70",1%
same,Effective dosage of metaflumizone in the treatment of carrot seeds (percentage),"Psila rosae [3]; 50 ml/unit, Day 97",24%
same,Effective dosage of metaflumizone in the treatment of carrot seeds (percentage),"Psila rosae [3]; 50 ml/unit, Day 116",61%
same,Effective dosage of metaflumizone in the treatment of carrot seeds (percentage),"Psila rosae [3]; 75 ml/unit, Day 70",0%
same,Effective dosage of metaflumizone in the treatment of carrot seeds (percentage),"Psila rosae [3]; 75 ml/unit, Day 97",14%
same,Effective dosage of metaflumizone in the treatment of carrot seeds (percentage),"Psila rosae [3]; 75 ml/unit, Day 116",55%
same,Effective dosage of metaflumizone in the treatment of carrot seeds (percentage),"Psila rosae [3]; 100 ml/unit, Day 70",0%
same,Effective dosage of metaflumizone in the treatment of carrot seeds (percentage),"Psila rosae [3]; 100 ml/unit, Day 97",29%
same,Effective dosage of metaflumizone in the treatment of carrot seeds (percentage),"Psila rosae [3]; 100 ml/unit, Day 116",55%
"N#Cc1ccc(C/C(=N/NC(=O)Nc2ccc(OC(F)(F)F)cc2)c2cccc(C(F)(F)F)c2)cc1 [metaflumizone, 2-[2-(4-cyanophenyl)-1-[3-(trifluoromethyl)phenyl]ethylidene]-N-[4-(trifluoromethoxy)phenyl]hydrazinecarboxamide]",snails inactive,Helix hortensis; 1 day after placing the snails,47%
same,snails inactive,Helix hortensis; 2 days after placing the snails,63%
same,snails dead,Helix hortensis; [4],71%
same,snails inactive (further to the dead),Helix hortensis; [4],12%
"CCOP(=O)(OCC)O/C(=C\Cl)c1ccc(Cl)cc1Cl [Birlane ™, chlorfenvinphos, reference compound]",Percentage of growing plants,"carrot seeds; carrot seeds, Day 20, coated with Birlane",52%
same,Percentage of growing plants,"carrot seeds; carrot seeds, Day 43, coated with Birlane",56%
same,Influence on the viability of carrot seeds,carrot seeds,no significant influence
same,Percentage of plants infested with Psila rosae,"Psila rosae [1]; carrot seed coating according to label recommendations, Day 35 after sowing",9%
same,Percentage of plants infested with Psila rosae,"Psila rosae [1]; carrot seed coating according to label recommendations, Day 91 after sowing",12%
same,Reduction of early damage by maggots,Psila rosae [1]; carrot seed coating,effective in reducing early damage by maggots
same,Percentage of plants infested with Psila rosae (long-term),Psila rosae [2]; Day 82,0.5%
same,Percentage of plants infested with Psila rosae (long-term),Psila rosae [2]; Day 96,2%
same,Percentage of plants infested with Psila rosae (long-term),Psila rosae [2]; Day 110,8%
same,Percentage of plants infested with Psila rosae (long-term),Psila rosae [2]; Day 124,11%
same,Persistence of the protective effect of seed treatment,Psila rosae [2],gradually wore off after 3-4 months
same,Effective dosage of metaflumizone in the treatment of carrot seeds (percentage),"Psila rosae [3]; Birlane, dose not given, Day 70",0.1%
same,Effective dosage of metaflumizone in the treatment of carrot seeds (percentage),"Psila rosae [3]; Birlane, dose not given, Day 97",23%
same,Effective dosage of metaflumizone in the treatment of carrot seeds (percentage),"Psila rosae [3]; Birlane, dose not given, Day 116",61%
